Data: paper PMC12022103 (Scientific Reports, 2025)
In brackets after ≈: the same amount, converted by molar mass. Non-standard residues stand in square brackets, D forms with d. Residues, ends and D or L forms follow the SMILES beside them. No end group written: not given here. AEEA = NCCOCCOCC(=O)O

What was measured:
E. coli ATCC 25922 [1] = experiment: Minimum inhibitory concentration (MIC), broth dilution; assay type: cell-based, Escherichia coli; settings: E. coli ATCC 25922; two-fold dilution in MH II broth, 5 × 10^5 CFU/mL, 18–24 h, 37 °C, OD600; triplicate, highest number reported; detection limit <0.5 and >128 µM
Method: (§1) The panel of bacterial reference strains used in this work for assessment of synthetic peptide activity originated from the American Type Culture Collection (ATCC) and was obtained from the Diagnostic section at the Department of Microbiology, Oslo University Hospital. The strains used were as follows: E. coli ATCC 25922, K. pneumoniae ATCC 13883, A. baumannii ATCC 17978, S. aureus ATCC 29213, and E. faecalis ATCC 29212.
(§2) Bacterial strains were plated on cation-adjusted Mueller-Hinton (MH II) agar plates and incubated at 37 °C overnight. The day after single colonies were picked and resuspended in sterile-filtered saline (0.9%). The OD of each bacterial suspension was adjusted to McFarland standard 0.5 using a spectrophotometer (UV-1800, Shimadzu), and the suspension further diluted 1:100 in MH II broth, corresponding to 10^6 colony forming units (CFU) per mL. The inoculum suspension was used for MIC, MBC, time-kill and protease stability assessments as described below. To ensure correct inoculum sizes, 10 µL of the bacterial suspensions were diluted 2000-fold in sterile-filtered saline (0.9%) and 100 µL plated onto MH II agar plates. After overnight incubation at 37 °C, colonies were counted. If found to be outside the acceptable number (20–80 colonies per plate corresponding to ∼10^6 CFU/mL), results from further analyses were discarded.
(§3) The peptides were serially diluted (two-fold) directly in 96-well plates (Greiner, MICROPLATE, 96 WELL, PP, U-BOTTOM, NATURAL, 650261) containing MH II broth, corresponding to concentrations in the range 256–0.5 µM. An equal volume of bacterial suspension was added to each well, resulting in a final inoculum of 5 × 10^5 CFU/mL and final peptide concentrations of 128–0.25 µM. The 96-well plates were incubated for 18–24 h at 37 °C, after which the OD of each well was measured at 600 nm in a plate reader (Victor Nivo, Perkin-Elmer). The minimum inhibitory concentration (MIC) was estimated as the lowest concentration of peptide that produced OD600 measurements similar to the control wells containing no bacteria. The experiments were performed in triplicate. Two-fold variations in MIC values were often observed between replicates.

P. aeruginosa [2] = experiment: as above; assay type: cell-based; settings: MH II broth, 5 × 10^5 CFU/mL, 18–24 h, 37 °C, OD600; triplicate, highest number reported; detection limit <0.5 and >128 µM
A. baumannii ATCC 17978 [3] = experiment: Minimum bactericidal concentration (MBC); assay type: cell-based; settings: 5 µL from MIC wells plated on MH II agar, 37 °C overnight, no visible colonies, triplicate, highest number reported
Method: as §1, §2
(§4) In order to assess the minimum bactericidal concentration (MBC) of peptides, 5 µL from each well of the 96-well plate used for MIC analysis was plated onto MH II agar and incubated at 37 °C overnight. […] The experiments were performed in triplicate. Two-fold variations in MIC values were often observed between replicates.

S. aureus ATCC 29213 [4] = experiment: Minimum bactericidal concentration (MBC); assay type: cell-based; settings: 5 µL from MIC wells plated on MH II agar, 37 °C overnight, no visible colonies, triplicate, highest number reported
Method: as §1, §2, §4

E. faecalis ATCC 29212 [5] = experiment: Minimum bactericidal concentration (MBC); assay type: cell-based; settings: 5 µL from MIC wells plated on MH II agar, 37 °C overnight, no visible colonies, triplicate, highest number reported
Method: as §1, §2, §4

K. pneumoniae ATCC 13883 [6] = experiment: Minimum bactericidal concentration (MBC); assay type: cell-based; settings: 5 µL from MIC wells plated on MH II agar, 37 °C overnight, no visible colonies, triplicate, highest number reported
Method: as §1, §2, §4

P. aeruginosa [7] = experiment: Minimum bactericidal concentration (MBC); assay type: cell-based; settings: 5 µL from MIC wells plated on MH II agar, 37 °C overnight, no visible colonies; triplicate, highest number reported
E. coli ATCC 25922 [8] = experiment: Minimum bactericidal concentration (MBC); assay type: cell-based, Escherichia coli; settings: 5 µL from MIC wells plated on MH II agar, 37 °C overnight, no visible colonies, triplicate, highest number reported, detection limit <0.5 and >128 µM
Method: as §1, §2, §4

A. baumannii ATCC 17978 [9] = experiment: Minimum inhibitory concentration (MIC), broth dilution; assay type: cell-based; settings: MH II broth, 5 × 10^5 CFU/mL, 18–24 h, 37 °C, OD600, triplicate, highest number reported, detection limit <0.5 and >128 µM
Method: as §1, §2, §3

S. aureus ATCC 29213 [10] = experiment: as above; assay type: cell-based; settings: S. aureus ATCC 29213; MH II broth, 5 × 10^5 CFU/mL, 18–24 h, 37 °C, OD600; triplicate, highest number reported; detection limit <0.5 and >128 µM
Method: as §1, §2, §3

E. faecalis ATCC 29212 [11] = experiment: as above; assay type: cell-based; settings: E. faecalis ATCC 29212; MH II broth, 5 × 10^5 CFU/mL, 18–24 h, 37 °C, OD600; triplicate, highest number reported; detection limit <0.5 and >128 µM
Method: as §1, §2, §3

K. pneumoniae ATCC 13883 [12] = experiment: as above; assay type: cell-based; settings: K. pneumoniae ATCC 13883; MH II broth, 5 × 10^5 CFU/mL, 18–24 h, 37 °C, OD600; triplicate, highest number reported; detection limit <0.5 and >128 µM
Method: as §1, §2, §3

| Molecule | MIC, E. coli (E. coli ATCC 25922 [1]) [µM] | MIC, P. aeruginosa (P. aeruginosa [2]) [µM] | MBC, A. baumannii (A. baumannii ATCC 17978 [3]) [µM] | MBC, S. aureus (S. aureus ATCC 29213 [4]) [µM] | MBC, E. faecalis (E. faecalis ATCC 29212 [5]) [µM] | MBC, K. pneumoniae (K. pneumoniae ATCC 13883 [6]) [µM] | MBC, P. aeruginosa (P. aeruginosa [7]) [µM] | MBC, E. coli (E. coli ATCC 25922 [8]) [µM] | MIC, A. baumannii (A. baumannii ATCC 17978 [9]) [µM] | MIC, S. aureus (S. aureus ATCC 29213 [10]) [µM] | MIC, E. faecalis (E. faecalis ATCC 29212 [11]) [µM] | MIC, K. pneumoniae (K. pneumoniae ATCC 13883 [12]) [µM] |
| --- | --- | --- | --- | --- | --- | --- | --- | --- | --- | --- | --- | --- |
| KKKKKKFVLQLILKLL-NH2 [2h-N12] | > 128 | > 128 | > 128 | > 128 | > 128 | > 128 | > 128 | > 128 | > 128 | > 128 | > 128 | > 128 |
| CC[C@H](C)[C@H](NC(=O)[C@H](CC(C)C)NC(=O)[C@H](CCC(N)=O)NC(=O)[C@H](CC(C)C)NC(=O)[C@@H](NC(=O)[C@H](C)NC(=O)[C@H](CCCCN)NC(=O)[C@H](CCCCN)NC(=O)[C@H](CCCCN)NC(=O)[C@H](CCCCN)NC(=O)[C@H](CCCCN)NC(=O)[C@@H](N)C(C)C)C(C)C)C(=O)NCCOCCOCC(=O)N[C@@H](CC(C)C)C(=O)N[C@@H](CCCCN)C(=O)N[C@@H](Cc1ccccc1)C(=O)N[C@@H](CC(C)C)C(N)=O [3e-N10] (H-VKKKKKAVLQLI[AEEA]LKFL-NH2) | 128 (≈ 261 µg/mL) | 32 (≈ 65.3 µg/mL) | 64 (≈ 131 µg/mL) | > 128 | > 128 | 128 (≈ 261 µg/mL) | > 128 | 128 (≈ 261 µg/mL) | 32 (≈ 65.3 µg/mL) | > 128 | > 128 | 128 (≈ 261 µg/mL) |
| KKKKAVLQLILLFL-NH2 [2a-N12] | > 128 | > 128 | > 128 | > 128 | > 128 | > 128 | > 128 | > 128 | > 128 | > 128 | > 128 | > 128 |
| CC[C@H](C)[C@H](NC(=O)[C@H](CC(C)C)NC(=O)[C@H](CCC(N)=O)NC(=O)[C@H](CC(C)C)NC(=O)[C@@H](NC(=O)[C@H](C)NC(=O)COCCOCCNC(=O)[C@H](CCCCN)NC(=O)[C@H](CCCCN)NC(=O)[C@H](CCCCN)NC(=O)[C@H](CCCCN)NC(=O)[C@H](CCCCN)NC(=O)[C@@H](N)C(C)C)C(C)C)C(=O)N[C@@H](CC(C)C)C(=O)N[C@@H](CCCCN)C(=O)N[C@@H](Cc1ccccc1)C(=O)N[C@@H](CC(C)C)C(N)=O [3c-N10] (H-VKKKKK[AEEA]AVLQLILKFL-NH2) | 16 (≈ 32.7 µg/mL) | 64 (≈ 131 µg/mL) | 16 (≈ 32.7 µg/mL) | 32 (≈ 65.3 µg/mL) | 16 (≈ 32.7 µg/mL) | 16 (≈ 32.7 µg/mL) | 32 (≈ 65.3 µg/mL) | 16 (≈ 32.7 µg/mL) | 16 (≈ 32.7 µg/mL) | 32 (≈ 65.3 µg/mL) | 16 (≈ 32.7 µg/mL) | 16 (≈ 32.7 µg/mL) |
| RRRRFVLRLILRLL-NH2 [2i-N12] | 64 | 64 | 128 | 128 | 128 | 128 | 128 | 128 | 128 | 64 | 64 | 64 |
| VKKKKKAVLQLILKFLRRRR-NH2 [3b-N10] | 16 | 4 | 8 | 8 | 4 | 16 | 4 | 16 | 8 | 8 | 4 | 16 |
| RRRRRRFVLRLILRLL-NH2 [2j-N12] | 64 | 64 | 64 | 64 | 32 | 64 | 64 | 128 | 64 | 64 | 32 | 64 |
| KKKKFVLQLILKLL-NH2 [2f-N12] | > 128 | > 128 | > 128 | > 128 | > 128 | > 128 | > 128 | > 128 | > 128 | > 128 | > 128 | > 128 |
| KKKKIIAVLQLILLFL-NH2 [2c-N12] | > 128 | > 128 | > 128 | > 128 | > 128 | > 128 | > 128 | > 128 | > 128 | > 128 | > 128 | > 128 |
| KKKKIIIAVLQLILLFL-NH2 [2d-N12] | > 128 | > 128 | > 128 | > 128 | > 128 | > 128 | > 128 | > 128 | > 128 | > 128 | > 128 | > 128 |
| KKKKKKFVLKLILKLL-NH2 [2g-N12] | 128 | 128 | 128 | 128 | 128 | 128 | 128 | 128 | 128 | 128 | 64 | 64 |
